Test results reported in patent US8383647B2, “Quinoline derivative” (Takeda Pharmaceutical Company Limited, priority 2009, dated 2013).
Where a name gives a salt, the structure may show the parent alone.

Assays:
human SLC-1 = human SLC-1 (Homo sapiens, UniProt Q99705); experiment: MCH receptor antagonistic activity (inhibitory activity, Experimental Example 1); assay type: biochemical
rat SLC-1 = rat SLC-1 (Rattus norvegicus, UniProt P97639); experiment: as above; assay type: biochemical
Sequence of rat SLC-1 (P97639 whole entry): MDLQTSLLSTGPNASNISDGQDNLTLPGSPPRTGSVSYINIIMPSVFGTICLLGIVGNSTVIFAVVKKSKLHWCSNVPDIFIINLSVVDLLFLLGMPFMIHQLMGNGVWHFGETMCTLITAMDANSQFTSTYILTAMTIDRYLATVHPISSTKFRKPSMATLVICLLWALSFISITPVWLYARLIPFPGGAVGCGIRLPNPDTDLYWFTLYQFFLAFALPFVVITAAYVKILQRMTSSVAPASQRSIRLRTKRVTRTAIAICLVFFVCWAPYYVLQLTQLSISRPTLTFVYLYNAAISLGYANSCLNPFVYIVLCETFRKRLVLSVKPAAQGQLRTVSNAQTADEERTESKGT

Sequence of human SLC-1 (Q99705 whole entry): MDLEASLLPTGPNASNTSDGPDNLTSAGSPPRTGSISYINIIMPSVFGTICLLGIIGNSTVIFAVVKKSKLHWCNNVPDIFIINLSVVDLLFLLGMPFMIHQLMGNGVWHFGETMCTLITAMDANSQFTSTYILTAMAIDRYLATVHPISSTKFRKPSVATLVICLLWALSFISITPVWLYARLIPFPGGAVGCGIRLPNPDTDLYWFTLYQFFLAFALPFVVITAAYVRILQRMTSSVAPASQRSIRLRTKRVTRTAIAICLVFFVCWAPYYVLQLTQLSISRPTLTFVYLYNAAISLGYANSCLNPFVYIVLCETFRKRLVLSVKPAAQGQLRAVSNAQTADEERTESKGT

melting point [°C]	IC50 (human SLC-1) [nM]	IC50 (rat SLC-1) [nM]	Compound
163 to 164	–	–	Cc1c(NC(=O)c2ccc(OC[C@H]3CCCO3)cc2)ccc2cc(CN[C@H]3CC[C@@](C)(O)CC3)cnc12 [Example 53, N-(3-{[(cis-4-hydroxy-4-methylcyclohexyl)amino]methyl}-8-methylquinolin-7-yl)-4-[(2R)-tetrahydrofuran-2-ylmethoxy]benzamide]
160 to 162	–	–	Cc1c(NC(=O)c2ccc(OCC3CCOC3)cc2)ccc2cc(CN3CCC(C)(O)CC3)cnc12 (stereo not shown) [Example 66, N-{3-[(4-hydroxy-4-methylpiperidin-1-yl)methyl]-8-methylquinolin-7-yl}-4-(tetrahydrofuran-3-ylmethoxy)benzamide]
98 to 101	–	–	Cc1c(NC(=O)c2ccc(OCC3CCOC3)cc2)ccc2cc(CN[C@H]3CC[C@](C)(O)CC3)cnc12 (stereo partly drawn) [Example 64, N-(3-{[(trans-4-hydroxy-4-methylcyclohexyl)amino]methyl}-8-methylquinolin-7-yl)-4-(tetrahydrofuran-3-ylmethoxy)benzamide]
–	8.4	11	COC(C)(C)CNCc1cnc2c(C)c(NC(=O)c3ccc(OC[C@@H]4CCCO4)cc3)ccc2c1 [Example 30, N-(3-{[(2-methoxy-2-methylpropyl)amino]methyl}-8-methylquinolin-7-yl)-4-[(2S)-tetrahydrofuran-2-ylmethoxy]benzamide dihydrochloride]
235 to 237	–	–	COC(C)(C)CNCc1cnc2c(C)c(NC(=O)c3ccc(OC[C@@H]4CCCO4)cc3)ccc2c1 (as salt: hydrochloride) [Example 30, N-(3-{[(2-methoxy-2-methylpropyl)amino]methyl}-8-methylquinolin-7-yl)-4-[(2S)-tetrahydrofuran-2-ylmethoxy]benzamide dihydrochloride]
197	–	–	Cc1c(NC(=O)c2ccc(OCC3CCCO3)cc2)ccc2cc(CN[C@H]3CCCC[C@@H]3O)cnc12 (stereo partly drawn) [Example 3, N-[3-({[(1S,2S)-2-hydroxycyclohexyl]amino}methyl)-8-methylquinolin-7-yl]-4-(tetrahydrofuran-2-ylmethoxy)benzamide]
242 to 244	–	–	Cc1c(NC(=O)c2ccc(OC[C@@H]3CCCO3)cc2)ccc2cc(CNCC3(O)CCCCC3)cnc12 (as salt: hydrochloride) [Example 41, N-[3-({[(1-hydroxycyclohexyl)methyl]amino}methyl)-8-methylquinolin-7-yl]-4-[(2S)-tetrahydrofuran-2-ylmethoxy]benzamide dihydrochloride]
130 to 131	–	–	Cc1c(NC(=O)c2ccc(OCC3CCOC3)cc2)ccc2cc(CNCC(C)C)cnc12 (stereo not shown) [Example 60, N-(8-methyl-3-{[(2-methylpropyl)amino]methyl}quinolin-7-yl)-4-(tetrahydrofuran-3-ylmethoxy)benzamide]
106	–	–	Cc1c(NC(=O)c2ccc(OCC3CCOC3)cc2)ccc2cc(CNC(C)C)cnc12 (stereo not shown) [Example 7, N-(8-methyl-3-{[(1-methylethyl)amino]methyl}quinolin-7-yl)-4-(tetrahydrofuran-3-ylmethoxy)benzamide]
132	–	–	Cc1c(NC(=O)c2ccc(OCC3CCOC3)cc2)ccc2cc(CNCC(C)C)cnc12 (stereo not shown) [Example 59, N-(8-methyl-3-{[(2-methylpropyl)amino]methyl}quinolin-7-yl)-4-(tetrahydrofuran-3-ylmethoxy)benzamide]
138	–	–	Cc1c(NC(=O)c2ccc(OCC3CCCO3)cc2)ccc2cc(CNCC(C)(C)O)cnc12 (stereo not shown) [Example 1, N-(3-{[(2-hydroxy-2-methylpropyl)amino]methyl}-8-methylquinolin-7-yl)-4-(tetrahydrofuran-2-ylmethoxy)benzamide]
137	–	–	COC(C)(C)CNCc1cnc2c(C)c(NC(=O)c3ccc(OCC4CCOC4)cc3)ccc2c1 (stereo not shown) [Example 65, N-(3-{[(2-methoxy-2-methylpropyl)amino]methyl}-8-methylquinolin-7-yl)-4-(tetrahydrofuran-3-ylmethoxy)benzamide]
